{
  "source": "paper PMC11335300",
  "about": "“The novel function of an orphan pheromone receptor reveals the sensory specializations of two potential distinct types of sex pheromones in noctuid moth” (Cellular and Molecular Life Sciences: CMLS, 2024)",
  "target": "T1, HarmOR11/Orco (Helicoverpa armigera, UniProt A0A7D5JUD6)",
  "T1 construct": "full-length HarmOR11 and HarmOrco cloned from antennal cDNA into pT7Ts; cRNAs co-injected in Xenopus laevis oocytes; heteromeric channel, exact stoichiometry unknown (2:2 only modelled); with Odorant receptor coreceptor",
  "T1 sequence (A0A7D5JUD6 1-431)": "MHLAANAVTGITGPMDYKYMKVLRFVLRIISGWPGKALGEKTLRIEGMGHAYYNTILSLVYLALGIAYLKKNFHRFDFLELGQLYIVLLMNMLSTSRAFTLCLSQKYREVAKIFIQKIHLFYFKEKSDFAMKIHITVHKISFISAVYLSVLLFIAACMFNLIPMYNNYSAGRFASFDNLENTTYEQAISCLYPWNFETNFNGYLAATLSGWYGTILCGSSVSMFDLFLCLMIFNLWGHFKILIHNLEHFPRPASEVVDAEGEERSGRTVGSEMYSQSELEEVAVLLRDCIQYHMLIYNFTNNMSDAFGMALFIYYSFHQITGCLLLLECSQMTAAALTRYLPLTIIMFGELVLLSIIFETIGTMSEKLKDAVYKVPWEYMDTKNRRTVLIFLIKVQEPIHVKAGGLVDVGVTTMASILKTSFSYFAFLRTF",
  "T1 sequence (E5KJL4 1-473 partner)": "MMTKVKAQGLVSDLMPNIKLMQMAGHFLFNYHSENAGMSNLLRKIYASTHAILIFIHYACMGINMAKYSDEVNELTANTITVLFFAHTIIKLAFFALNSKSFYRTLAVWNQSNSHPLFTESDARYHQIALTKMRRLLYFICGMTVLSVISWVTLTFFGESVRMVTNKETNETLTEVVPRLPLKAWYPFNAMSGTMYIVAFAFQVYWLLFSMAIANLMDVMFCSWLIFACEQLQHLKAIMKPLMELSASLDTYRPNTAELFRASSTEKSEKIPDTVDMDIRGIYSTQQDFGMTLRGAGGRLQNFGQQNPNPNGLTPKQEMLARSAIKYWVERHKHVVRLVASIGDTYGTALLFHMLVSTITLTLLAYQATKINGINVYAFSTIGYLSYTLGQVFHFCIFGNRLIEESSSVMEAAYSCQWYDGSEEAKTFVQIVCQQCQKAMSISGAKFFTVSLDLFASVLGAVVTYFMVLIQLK",
  "test": "two-electrode voltage clamp of Xenopus oocytes co-expressing HarmOR11/Orco",
  "assay_type": "cell-based",
  "conditions": "agonist; holding potential -80 mV; Ringer's buffer pH 7.6; from DMSO stock; unit printed as mol (concentration meant)",
  "data": [
    {"smiles": "CC/C=C\\C/C=C\\C/C=C\\CCCCCCCCCCC", "note": "[3Z,6Z,9Z-21:H, 3Z,6Z,9Z-heneicosatriene]", "values": [
      {"measurement": "EC50", "result": "1.637e-05", "unit": "mol"}
    ]}
  ]
}
